The values below come from US12083101B2, “Biaryl derivatives as YAP/TAZ-TEAD protein-protein interaction inhibitors” (Novartis AG, priority 2020, dated 2024).

Structures can show the parent of a compound that is named as a salt.

Sequence of Avi-humanTEAD4 217-434 / Cy5 labeled humanYAP 60-100 (Q15561 217-434): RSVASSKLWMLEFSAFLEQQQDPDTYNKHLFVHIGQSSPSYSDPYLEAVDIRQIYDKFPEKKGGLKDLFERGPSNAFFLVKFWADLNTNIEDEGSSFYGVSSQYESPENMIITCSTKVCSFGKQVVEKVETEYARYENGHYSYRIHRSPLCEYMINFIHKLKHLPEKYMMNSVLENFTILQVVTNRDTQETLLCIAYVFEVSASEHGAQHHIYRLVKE

For this experiment, the target named is Avi-humanTEAD4 217-434 / Cy5 labeled humanYAP 60-100 (Homo sapiens (Human), UniProt Q15561). The experiment can be described thus: TR-FRET YAP-TEAD4 in-vitro biochemical assay. In kind it is binding. As to conditions: 1 nM Avi-humanTEAD4 217-434, 20 nM Cy5-humanYAP 60-100, 1 h room temperature. Here is the method:
N-terminus Cy5 labeled humanYAP^60-100 (20 nM) was then added to this preparation. Compounds were dissolved at 10 mM in 100% DMSO and serial dilutions were made in 100% DMSO. The diluted compound solutions were incubated in white 384-well plates (Greiner Bio-One) for 1 h at room temperature with the above described mix. The final DMSO concentration present in the assay was 1%. […] The IC50 values were estimated by fitting the data by nonlinear fit regression (GraphPad Prism).
Regarding `Cc1cccc(C(N)=O)c1-c1c(Cl)ccc2c1C[C@@](CN)(c1ccccc1)O2` (atropisomer, axis not shown) [Example 6, 2-((2S,4R)-2-(aminomethyl)-5-chloro-2-phenyl-2,3-dihydrobenzofuran-4-yl)-3-methylbenzamide], the midpoint of inhibition, the IC50, lay at 376 nM.
For `NC[C@@]1(c2ccccc2)Cc2c(ccc(Cl)c2-c2c(Cl)cccc2C(N)=O)O1` (atropisomer, axis not shown) [Example 7, 2-((2S,4S)-2-(aminomethyl)-5-chloro-2-phenyl-2,3-dihydrobenzofuran-4-yl)-3-chlorobenzamide trifluoroacetate salt] the value was 65 nM; for `NC[C@@]1(c2ccccc2)Cc2c(ccc(Cl)c2-c2c(C(N)=O)ccc(Cl)c2F)O1` (atropisomer, axis not shown) [Example 8, 2-((2S,4S)-2-(aminomethyl)-5-chloro-2-phenyl-2,3-dihydrobenzofuran-4-yl)-4-chloro-3-fluorobenzamide], 4 nM.
For `NC[C@@]1(c2ccccc2)Cc2c(ccc(Cl)c2-c2c(C(N)=O)ccc(F)c2F)O1` (atropisomer, axis not shown) [Example 9, 2-((2S,4S)-2-(aminomethyl)-5-chloro-2-phenyl-2,3-dihydrobenzofuran-4-yl)-3,4-difluorobenzamide] the value was 4 nM.
On to `NC[C@@]1(c2ccccc2)Cc2c(ccc(Cl)c2-c2c(C(N)=O)ccc(OCC(=O)O)c2F)O1` (atropisomer, axis not shown) [Example 16, 2-(3-((2S,4S)-2-(aminomethyl)-5-chloro-2-phenyl-2,3-dihydrobenzofuran-4-yl)-4-carbamoyl-2-fluorophenoxy)acetic acid trifluoroacetate salt], for which the half-inhibitory concentration (IC50) (usually the point on the concentration scale where inhibition reaches its midpoint) worked out at 6 nM.
For `CC(=O)N1CCO[C@@H](COc2ccc(C(N)=O)c(-c3c(Cl)ccc4c3C[C@@](CN)(c3ccccc3)O4)c2F)C1` (atropisomer, axis not shown) [Example 17, 4-(((R)-4-acetylmorpholin-2-yl)methoxy)-2-((2S,4S)-2-(aminomethyl)-5-chloro-2-phenyl-2,3-dihydrobenzofuran-4-yl)-3-fluorobenzamide] the value was 13 nM.
For `NC[C@@]1(c2ccccc2)Cc2c(ccc(Cl)c2-c2c(C(N)=O)cnc(OC(F)F)c2F)O1` (atropisomer, axis not shown) [Example 19, 4-((2S,4S)-2-(Aminomethyl)-5-chloro-2-phenyl-2,3-dihydrobenzofuran-4-yl)-6-(difluoromethoxy)-5-fluoronicotinamide] the value was 3 nM; for `COc1ccc(C(=O)NC2CC2)c(-c2c(Cl)ccc3c2C[C@@](CN)(c2ccccc2)O3)c1F` (atropisomer, axis not shown) [Example 23, 2-((2S,4S)-2-(aminomethyl)-5-chloro-2-phenyl-2,3-dihydrobenzofuran-4-yl)-N-cyclopropyl-3-fluoro-4-methoxybenzamide], 9 nM.
For `Cn1nccc1NC(=O)c1ccc(F)c(F)c1-c1c(Cl)ccc2c1C[C@@](CN)(c1ccccc1)O2` (atropisomer, axis not shown) [Example 24, 2-((2S,4S)-2-(aminomethyl)-5-chloro-2-phenyl-2,3-dihydrobenzofuran-4-yl)-3,4-difluoro-N-(1-methyl-1H-pyrazol-5-yl)benzamide] the value was 6 nM.
The compound `NC[C@@]1(c2ccccc2)Cc2c(cc(F)c(Cl)c2-c2c(C(N)=O)ccc(OC(F)(F)CO)c2F)O1` (atropisomer, axis not shown) [Example 36, 2-((2S,4S)-2-(aminomethyl)-5-chloro-6-fluoro-2-phenyl-2,3-dihydrobenzofuran-4-yl)-4-(1,1-difluoro-2-hydroxyethoxy)-3-fluorobenzamide] displayed a 50% inhibitory concentration (IC50) of 10 nM.
For `CS(=O)(=O)COc1ccc(C(N)=O)c(-c2c(Cl)c(F)cc3c2C[C@@](CN)(c2ccccc2)O3)c1F` (atropisomer, axis not shown) [Example 40, 2-((2S,4S)-2-(aminomethyl)-5-chloro-6-fluoro-2-phenyl-2,3-dihydrobenzofuran-4-yl)-3-fluoro-4-((methylsulfonyl)methoxy)benzamide] the value was 42 nM; for `NC[C@@]1(c2ccccc2)Cc2c(cc(F)c(Cl)c2-c2c(C(N)=O)ccc(OCCC(F)F)c2F)O1` (atropisomer, axis not shown) [Example 41, 2-((2S,4S)-2-(aminomethyl)-5-chloro-6-fluoro-2-phenyl-2,3-dihydrobenzofuran-4-yl)-4-(3,3-difluoropropoxy)-3-fluorobenzamide], 89 nM; for `CNC(=O)c1cnc(OCCO)c(F)c1-c1c(Cl)c(F)cc2c1C[C@@](CN)(c1ccccc1)O2` (atropisomer, axis not shown) [Example 45, 4-((2S,4S)-2-(Aminomethyl)-5-chloro-6-fluoro-2-phenyl-2,3-dihydrobenzofuran-4-yl)-5-fluoro-6-(2-hydroxyethoxy)-N-methylnicotinamide], 10 nM.
For `CNC[C@@]1(c2ccccc2)Cc2c(cc(F)c(Cl)c2-c2c(C(N)=O)ccc(OC)c2F)O1` (atropisomer, axis not shown) [Example 46, 2-((2S,4S)-5-Chloro-6-fluoro-2-((methylamino)methyl)-2-phenyl-2,3-dihydrobenzofuran-4-yl)-3-fluoro-4-methoxybenzamide] the value was 3 nM; for `CNC[C@@]1(c2ccccc2)Cc2c(cc(F)c(Cl)c2-c2c(C(N)=O)cnc(OCCO)c2F)O1` (atropisomer, axis not shown) [Example 49, 4-((2S,4S)-5-Chloro-6-fluoro-2-((methylamino)methyl)-2-phenyl-2,3-dihydrobenzofuran-4-yl)-5-fluoro-6-(2-hydroxyethoxy)nicotinamide], 5 nM; for `NC(=O)c1ccc(OC(F)F)c(F)c1-c1c(Cl)c(F)cc2c1C[C@@](CNCC1CC1)(c1ccccc1)O2` (atropisomer, axis not shown) [Example 50, 2-((2S,4S)-5-Chloro-2-(((cyclopropylmethyl)amino)methyl)-6-fluoro-2-phenyl-2,3-dihydrobenzofuran-4-yl)-4-(difluoromethoxy)-3-fluorobenzamide], 30 nM.
For `CNC[C@@]1(c2ccccc2)Cc2c(cc(F)c(Cl)c2-c2c(C(=O)NC)cnc(OCCO)c2F)O1` (atropisomer, axis not shown) [Example 53, 4-((2S,4S)-5-chloro-6-fluoro-2-((methylamino)methyl)-2-phenyl-2,3-dihydrobenzofuran-4-yl)-5-fluoro-6-(2-hydroxyethoxy)-N-methylnicotinamide] the value was 6 nM; for `CN(C)C(=O)CN1CCC(NC[C@@]2(c3ccccc3)Cc3c(cc(F)c(Cl)c3-c3c(C(N)=O)ccc(OC(F)F)c3F)O2)CC1` (atropisomer, axis not shown) [Example 60, 2-((2S,4S)-5-chloro-2-(((1-(2-(dimethylamino)-2-oxoethyl)piperidin-4-yl)amino)methyl)-6-fluoro-2-phenyl-2,3-dihydrobenzofuran-4-yl)-4-(difluoromethoxy)-3-fluorobenzamide], 20 nM.
With `CS(=O)(=O)N1CCC(NC[C@@]2(c3ccccc3)Cc3c(cc(F)c(Cl)c3-c3c(C(N)=O)ccc(OC(F)F)c3F)O2)CC1` (atropisomer, axis not shown) [Example 63, 2-((2S,4S)-5-chloro-6-fluoro-2-(((1-(methylsulfonyl)piperidin-4-yl)amino)methyl)-2-phenyl-2,3-dihydrobenzofuran-4-yl)-4-(difluoromethoxy)-3-fluorobenzamide], the IC50 was determined as 69 nM.
